What was measured:
Test in all cases: NCI one-dose SRB growth inhibition
Type in all cases: cell-based
NCI-H522 = details: Homo sapiens, NCI-H522, 48 h, Non-Small Cell Lung Cancer, read-out: GI% NCI-H522
Method: (§1) The antitumor assay was performed according to the protocol of the Drug Evaluation Branch, NCI, Bethesda[24–26]. A 48 h drug exposure protocol was adopted, and sulforhodamine B (SRB) assay[27] was utilized to assess the cell growth and viability, as reported earlier[17]^,[28].
(§2) The structures of all the newly synthesized pyridines 5a–l were submitted to the National Cancer Institute (NCI) Developmental Therapeutic Program (www.dtp.nci.nih.gov). […] Nine different types of cancer were tested in this assay: colon, ovarian, prostate, leukemia, melanoma, CNS, renal, breast and lung cancers. A 48 h drug exposure protocol was adopted, and sulforhodamine B (SRB) assay[27] was utilized to assess the cell growth and viability.

A549/ATCC = details: Homo sapiens, A549, 48 h, Non-Small Cell Lung Cancer, read-out: GI% A549/ATCC
Method: as §1, §2

A498 = details: Homo sapiens, Renal Cancer, 48 h, read-out: GI% A498
Method: as §1, §2

786-0 = details: Homo sapiens, Renal Cancer, 48 h, read-out: GI% 786-0
Method: as §1, §2

SK-MEL-2 = details: Homo sapiens, Melanoma, 48 h, read-out: GI% SK-MEL-2
Method: as §1, §2

HL-60(TB) = details: Homo sapiens, Leukemia, 48 h, read-out: GI% HL-60(TB)
Method: as §1, §2

HCT-116 = details: Homo sapiens, HCT-116, 48 h, Colon Cancer, read-out: GI% HCT-116
Method: as §1, §2

UACC-62 = details: Homo sapiens, UACC-62, 48 h, Melanoma, read-out: GI% UACC-62
Method: as §1, §2

HCT-15 = details: Homo sapiens, HCT-15, 48 h, Colon Cancer, read-out: GI% HCT-15
Method: as §1, §2

SF-539 = details: Homo sapiens, CNS Cancer, 48 h, read-out: GI% SF-539
Method: as §1, §2

LOX IMVI = details: Homo sapiens, Melanoma, 48 h, read-out: GI% LOX IMVI
Method: as §1, §2

MALME-3M = details: Homo sapiens, Melanoma, 48 h, read-out: GI% MALME-3M
Method: as §1, §2

T-47D = details: Homo sapiens, T47D, 48 h, Breast Cancer, read-out: GI% T-47D
Method: as §1, §2

DU-145 = details: Homo sapiens, Prostate, 48 h, read-out: GI% DU-145
Method: as §1, §2

OVCAR-4 = details: Homo sapiens, Ovarian Cancer, 48 h, read-out: GI% OVCAR-4
Method: as §1, §2

IGROV1 = details: Homo sapiens, IGROV-1, Ovarian Cancer, 48 h, read-out: GI% IGROV1
Method: as §1, §2

HT29 = details: Homo sapiens, HT-29, 48 h, Colon Cancer, read-out: GI% HT29
Method: as §1, §2

MOLT-4 = details: Homo sapiens, Leukemia, 48 h, read-out: GI% MOLT-4
Method: as §1, §2

EKVX = details: Homo sapiens, Non-Small Cell Lung Cancer, 48 h, read-out: GI% EKVX
Method: as §1, §2

HOP-62 = details: Homo sapiens, Non-Small Cell Lung Cancer, 48 h, read-out: GI% HOP-62
Method: as §1, §2

NCI-H322M = details: Homo sapiens, Non-Small Cell Lung Cancer, 48 h, read-out: GI% NCI-H322M
Method: as §1, §2

SNB-75 = details: Homo sapiens, CNS Cancer, 48 h, read-out: GI% SNB-75
Method: as §1, §2

HS 578T = details: Homo sapiens, Breast Cancer, 48 h, read-out: GI% HS 578T
Method: as §1, §2

M14 = details: Homo sapiens, M14, 48 h, Melanoma, read-out: GI% M14
Method: as §1, §2

CCRF-CEM = details: Homo sapiens, Leukemia, 48 h, read-out: GI% CCRF-CEM
Method: as §1, §2

NCI-H460 = details: Homo sapiens, Non-Small Cell Lung Cancer, 48 h, read-out: GI% NCI-H460
Method: as §1, §2

PC-3 = details: Homo sapiens, PC-3, 48 h, Prostate, read-out: GI% PC-3
Method: as §1, §2

MDA-MB-231 = details: Homo sapiens, Breast Cancer, 48 h, read-out: GI% MDA-MB-231
Method: as §1, §2

K-562 = details: Homo sapiens, K562, 48 h, Leukemia, read-out: GI% K-562
Method: as §1, §2

SR = details: Homo sapiens, 48 h, Leukemia, read-out: GI% SR
Method: as §1, §2

SF-268 = details: Homo sapiens, CNS Cancer, 48 h, read-out: GI% SF-268
Method: as §1, §2

OVCAR-5 = details: Homo sapiens, Ovarian Cancer, 48 h, read-out: GI% OVCAR-5
Method: as §1, §2

UO-31 = details: Homo sapiens, Renal Cancer, 48 h, read-out: GI% UO-31
Method: as §1, §2

Row | SMILES | inhibition at 10 µM (NCI-H522) [%] | inhibition at 10 µM (A549/ATCC) [%] | inhibition at 10 µM (A498) [%] | inhibition at 10 µM (786-0) [%] | inhibition at 10 µM (SK-MEL-2) [%] | inhibition at 10 µM (HL-60(TB)) [%] | inhibition at 10 µM (HCT-116) [%] | inhibition at 10 µM (UACC-62) [%] | inhibition at 10 µM (HCT-15) [%] | inhibition at 10 µM (SF-539) [%] | inhibition at 10 µM (LOX IMVI) [%] | inhibition at 10 µM (MALME-3M) [%] | inhibition at 10 µM (T-47D) [%] | inhibition at 10 µM (DU-145) [%] | inhibition at 10 µM (OVCAR-4) [%] | inhibition at 10 µM (IGROV1) [%] | inhibition at 10 µM (HT29) [%] | inhibition at 10 µM (MOLT-4) [%] | inhibition at 10 µM (EKVX) [%] | inhibition at 10 µM (HOP-62) [%] | other results
1 | Cc1nc(-c2cccs2)ccc1NC(=O)Nc1ccc(F)cc1 [Compound 5h, 1-(4-Fluorophenyl)-3-(2-methyl-6-(thiophen-2-yl)pyridin-3-yl)urea] | 39 | 32 | < 10 | < 10 | 24 | 15 | 22 | 18 | 26 | < 10 | < 10 | < 10 | 15 | < 10 | < 10 | < 10 | 12 | 29 | < 10 | < 10 | inhibition at 10 µM (NCI-H322M): < 10%; inhibition at 10 µM (SNB-75): < 10%; inhibition at 10 µM (HS 578T): < 10%; inhibition at 10 µM (M14): < 10%; inhibition at 10 µM (CCRF-CEM): 10%; inhibition at 10 µM (NCI-H460): < 10%; inhibition at 10 µM (PC-3): 19%; inhibition at 10 µM (MDA-MB-231): < 10%; inhibition at 10 µM (K-562): 22%; inhibition at 10 µM (SR): 18%; inhibition at 10 µM (SF-268): < 10%; inhibition at 10 µM (OVCAR-5): < 10%; inhibition at 10 µM (UO-31): 13%
2 | CCOC(=O)c1ccc(NC(=O)Nc2ccc(-c3cccs3)nc2C)cc1 [Compound 5j, Ethyl 4-(3-(2-methyl-6-(thiophen-2-yl)pyridin-3-yl)ureido)benzoate] | 52 | 35 | < 10 | 12 | 11 | 10 | 27 | < 10 | 30 | < 10 | 10 | < 10 | < 10 | < 10 | < 10 | < 10 | 19 | 44 | < 10 | < 10 | inhibition at 10 µM (NCI-H322M): 17%; inhibition at 10 µM (SNB-75): < 10%; inhibition at 10 µM (HS 578T): < 10%; inhibition at 10 µM (M14): 38%; inhibition at 10 µM (CCRF-CEM): 50%; inhibition at 10 µM (NCI-H460): 43%; inhibition at 10 µM (PC-3): 52%; inhibition at 10 µM (MDA-MB-231): < 10%; inhibition at 10 µM (K-562): 42%; inhibition at 10 µM (SR): 44%; inhibition at 10 µM (SF-268): < 10%; inhibition at 10 µM (OVCAR-5): < 10%; inhibition at 10 µM (UO-31): < 10%
3 | COc1ccc(NC(=O)Nc2ccc(-c3ccc(Cl)cc3)nc2C)cc1 [Compound 5f, 1-(6-(4-Chlorophenyl)-2-methylpyridin-3-yl)-3-(4-methoxyphenyl) urea] | 40 | 25 | < 10 | < 10 | < 10 | 12 | 21 | 27 | < 10 | < 10 | 21 | < 10 | < 10 | < 10 | < 10 | < 10 | 23 | 14 | < 10 | < 10 | inhibition at 10 µM (NCI-H322M): < 10%; inhibition at 10 µM (SNB-75): < 10%; inhibition at 10 µM (HS 578T): < 10%; inhibition at 10 µM (M14): 38%; inhibition at 10 µM (CCRF-CEM): 18%; inhibition at 10 µM (NCI-H460): < 10%; inhibition at 10 µM (PC-3): < 10%; inhibition at 10 µM (MDA-MB-231): < 10%; inhibition at 10 µM (K-562): 13%; inhibition at 10 µM (SR): 28%; inhibition at 10 µM (SF-268): < 10%; inhibition at 10 µM (OVCAR-5): < 10%; inhibition at 10 µM (UO-31): < 10%
4 | Cc1nc(-c2ccc(Cl)cc2)ccc1NC(=O)Nc1cccc(C(F)(F)F)c1 [Compound 5e, 1-(6-(4-Chlorophenyl)-2-methylpyridin-3-yl)-3-(3-(trifluoromethyl)phenyl)urea] | 48 | 10 | < 10 | < 10 | < 10 | 21 | 26 | < 10 | 18 | < 10 | < 10 | < 10 | 13 | < 10 | < 10 | < 10 | 25 | 12 | < 10 | < 10 | inhibition at 10 µM (NCI-H322M): < 10%; inhibition at 10 µM (SNB-75): < 10%; inhibition at 10 µM (HS 578T): < 10%; inhibition at 10 µM (M14): < 10%; inhibition at 10 µM (CCRF-CEM): 22%; inhibition at 10 µM (NCI-H460): 34%; inhibition at 10 µM (PC-3): 20%; inhibition at 10 µM (MDA-MB-231): < 10%; inhibition at 10 µM (K-562): 20%; inhibition at 10 µM (SR): 41%; inhibition at 10 µM (SF-268): < 10%; inhibition at 10 µM (OVCAR-5): < 10%; inhibition at 10 µM (UO-31): < 10%
5 | Cc1nc(-c2ccc(Cl)cc2)ccc1NC(=O)Nc1ccc2c(c1)OCO2 [Compound 5g, 1-(Benzo[d][1,3]dioxol-5-yl)-3-(6-(4-chlorophenyl)-2-methylpyridin-3-yl)urea] | 38 | 32 | < 10 | < 10 | < 10 | 24 | < 10 | 27 | < 10 | < 10 | 34 | < 10 | < 10 | < 10 | < 10 | < 10 | 11 | 18 | < 10 | < 10 | inhibition at 10 µM (NCI-H322M): < 10%; inhibition at 10 µM (SNB-75): < 10%; inhibition at 10 µM (HS 578T): < 10%; inhibition at 10 µM (M14): 29%; inhibition at 10 µM (CCRF-CEM): < 10%; inhibition at 10 µM (NCI-H460): < 10%; inhibition at 10 µM (PC-3): < 10%; inhibition at 10 µM (MDA-MB-231): < 10%; inhibition at 10 µM (K-562): 21%; inhibition at 10 µM (SR): 22%; inhibition at 10 µM (SF-268): < 10%; inhibition at 10 µM (OVCAR-5): < 10%; inhibition at 10 µM (UO-31): < 10%
